Laboratory results from US20260262643A1, “HERBICIDAL BENZOXAZINES” (FMC CORPORATION, priority 2022, published 2026).

Assays:
[1] = system: foxtail, giant; assay: Test A postemergence; format: in vivo, Setaria faberi; details: postemergence, 10 days; for Foxtail, Giant plant response rating: 125 g ai/ha, 0 to 100 scale, 0 no effect, 100 complete control; for Plant response rating, Foxtail, Giant: 500 g ai/ha, visual injury, 0 to 100 scale (0 no effect, 100 complete control)
How it was run: (§1)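 Visual injury ratings on a 0–100 scale (100 = complete control) versus untreated controls, taken 10 days after treatment in greenhouse. Preemergence: directed soil spray onto seeded loam/sand. Postemergence: foliar application at one- to two-leaf stage, plants 2–10 cm. Formulation: non-phytotoxic solvent plus surfactant.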

[2] = system: wheat; assay: Test A postemergence; format: in vivo, Triticum aestivum; details: postemergence, 10 days; for Wheat plant response rating: 125 g ai/ha, 0 to 100 scale, 0 no effect, 100 complete control; for Plant response rating, Wheat: 500 g ai/ha, visual injury, 0 to 100 scale (0 no effect, 100 complete control)
How it was run: as §1

[3] = system: oat, wild; assay: Test A preemergence; format: in vivo, Avena fatua; details: 0 to 100 scale
How it was run: as §1

[4] = system: ragweed; assay: Test A preemergence; format: in vivo, Ambrosia artemisiifolia; details: 0 to 100 scale
How it was run: as §1

[5] = system: oat, wild; assay: Test A postemergence; format: in vivo, Avena fatua; details: postemergence, 10 days; for Oat, Wild plant response rating: 125 g ai/ha, 0 to 100 scale, 0 no effect, 100 complete control; for Plant response rating, Oat, Wild: 500 g ai/ha, visual injury, 0 to 100 scale (0 no effect, 100 complete control)
How it was run: as §1

[6] = system: rice; assay: Test B flooded paddy test; format: in vivo, Oryza sativa; details: 250 g ai/ha, Flood, 13 days, 0 to 100 scale (0 no effect, 100 complete control)
How it was run: (§2)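 Application into standing water (3 cm above soil) at the two-leaf stage; flood depth held constant. Evaluation: day 13, visual comparison with controls, 0 = no injury, 100 = complete control.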

[7] = system: horseweed; assay: Test A postemergence; format: in vivo, Erigeron canadensis; details: postemergence, 10 days; for Horseweed plant response rating: 125 g ai/ha, 0 to 100 scale, 0 no effect, 100 complete control; for Plant response rating, Horseweed: 500 g ai/ha, visual injury, 0 to 100 scale (0 no effect, 100 complete control)
How it was run: as §1

[8] = system: ragweed; assay: Test A postemergence; format: in vivo, Ambrosia artemisiifolia; details: postemergence, 10 days; for Ragweed plant response rating: 125 g ai/ha, 0 to 100 scale, 0 no effect, 100 complete control; for Plant response rating, Ragweed: 500 g ai/ha, visual injury, 0 to 100 scale (0 no effect, 100 complete control)
How it was run: as §1

[9] = system: ducksalad; assay: Test B flooded paddy test; format: in vivo, Heteranthera limosa; details: 250 g ai/ha, Flood, 13 days, 0 to 100 scale (0 no effect, 100 complete control)
How it was run: as §2

[10] = system: corn; assay: Test A postemergence; format: in vivo, Zea mays; details: postemergence, 10 days; for Corn plant response rating: 125 g ai/ha, 0 to 100 scale, 0 no effect, 100 complete control; for Plant response rating, Corn: 500 g ai/ha, visual injury, 0 to 100 scale (0 no effect, 100 complete control)
How it was run: as §1

[11] = system: pigweed, palmer; assay: Test A preemergence; format: in vivo, Amaranthus palmeri; details: 0 to 100 scale
How it was run: as §1

[12] = system: kochia; assay: Test A preemergence; format: in vivo, Bassia scoparia; details: 0 to 100 scale
How it was run: as §1

[13] = system: corn; assay: Test A preemergence; format: in vivo, Zea mays; details: 0 to 100 scale
How it was run: as §1

[14] = system: sedge, umbrella; assay: Test B flooded paddy test; format: in vivo, Cyperus difformis; details: 250 g ai/ha, Flood, 13 days, 0 to 100 scale (0 no effect, 100 complete control)
How it was run: as §2

[15] = system: kochia; assay: Test A postemergence; format: in vivo, Bassia scoparia; details: postemergence, 10 days; for Kochia plant response rating: 125 g ai/ha, 0 to 100 scale, 0 no effect, 100 complete control; for Plant response rating, Kochia: 500 g ai/ha, visual injury, 0 to 100 scale (0 no effect, 100 complete control)
How it was run: as §1

[16] = system: wheat; assay: Test A preemergence; format: in vivo, Triticum aestivum; details: 0 to 100 scale
How it was run: as §1

[17] = system: foxtail, giant; assay: Test A preemergence; format: in vivo, Setaria faberi; details: 0 to 100 scale
How it was run: as §1

[18] = system: blackgrass; assay: Test A postemergence; format: in vivo, Alopecurus myosuroides; details: postemergence, 10 days; for Blackgrass plant response rating: 125 g ai/ha, 0 to 100 scale, 0 no effect, 100 complete control; for Plant response rating, Blackgrass: 500 g ai/ha, visual injury, 0 to 100 scale (0 no effect, 100 complete control)
How it was run: as §1

[19] = system: soybean; assay: Test A postemergence; format: in vivo, Glycine max; details: postemergence, 10 days; for Soybean plant response rating: 125 g ai/ha, 0 to 100 scale, 0 no effect, 100 complete control; for Plant response rating, Soybean: 500 g ai/ha, visual injury, 0 to 100 scale (0 no effect, 100 complete control)
How it was run: as §1

[20] = system: blackgrass; assay: Test A preemergence; format: in vivo, Alopecurus myosuroides; details: 0 to 100 scale
How it was run: as §1

[21] = system: ryegrass, Italian; assay: Test A preemergence; format: in vivo, Lolium multiflorum; details: 0 to 100 scale
How it was run: as §1

[22] = system: soybean; assay: Test A preemergence; format: in vivo, Glycine max; details: 0 to 100 scale
How it was run: as §1

[23] = system: barnyardgrass; assay: Test A preemergence; format: in vivo, Echinochloa crusgalli; details: visual injury after 10 days, 0 to 100 scale, 0 is no effect, 100 is complete control
How it was run: as §1

[24] = system: galium; assay: Test A postemergence; format: in vivo, Galium aparine; details: postemergence, 10 days; for Galium plant response rating: 125 g ai/ha, 0 to 100 scale, 0 no effect, 100 complete control; for Plant response rating, Galium: 500 g ai/ha, visual injury, 0 to 100 scale (0 no effect, 100 complete control)
How it was run: as §1

[25] = system: barnyardgrass; assay: Test A postemergence; format: in vivo, Echinochloa crusgalli; details: postemergence, 10 days; for Barnyardgrass plant response rating: 125 g ai/ha, 0 to 100 scale, 0 no effect, 100 complete control; for Plant response rating, Barnyardgrass: 500 g ai/ha, visual injury, 0 to 100 scale (0 no effect, 100 complete control)
How it was run: as §1

[26] = system: pigweed, palmer; assay: Test A postemergence; format: in vivo, Amaranthus palmeri; details: postemergence, 10 days; for Pigweed, Palmer plant response rating: 125 g ai/ha, 0 to 100 scale, 0 no effect, 100 complete control; for Plant response rating, Pigweed, Palmer: 500 g ai/ha, visual injury, 0 to 100 scale (0 no effect, 100 complete control)
How it was run: as §1

[27] = system: ryegrass, Italian; assay: Test A postemergence; format: in vivo, Lolium multiflorum; details: postemergence, 10 days; for Ryegrass, Italian plant response rating: 125 g ai/ha, 0 to 100 scale, 0 no effect, 100 complete control; for Plant response rating, Ryegrass, Italian: 500 g ai/ha, visual injury, 0 to 100 scale (0 no effect, 100 complete control)
How it was run: as §1

[28] = system: barnyardgrass; assay: Test B flooded paddy test; format: in vivo, Echinochloa crus-galli; details: 250 g ai/ha, Flood, 13 days, 0 to 100 scale (0 no effect, 100 complete control)
How it was run: as §2

[29] = 125 g ai/ha, visual injury after 10 days, 0 is no effect, 100 is complete control
[30] = 500 g ai/ha, visual injury after 10 days, 0 is no effect, 100 is complete control

C[C@H]1CN(C(=O)c2cc(Br)cc(-n3cncn3)c2)c2cccc(Cl)c2O1 [Compound 114]
Foxtail, Giant plant response rating [1]: 70
Plant response rating, Foxtail, Giant [1]: 90
Wheat plant response rating [2]: 10
Plant response rating, Wheat [2]: 40
Plant response rating, Oat, Wild [3, 29]: 0
Plant response rating, Oat, Wild [3, 30]: 20
Plant response rating, Ragweed [4, 29]: 0
Plant response rating, Ragweed [4, 30]: 0
Oat, Wild plant response rating [5]: 0
Plant response rating, Oat, Wild [5]: 40
Plant response rating, Rice [6]: 0
Horseweed plant response rating [7]: 0
Plant response rating, Horseweed [7]: 0
Ragweed plant response rating [8]: 0
Plant response rating, Ragweed [8]: 0
Plant response rating, Ducksalad [9]: 0
Corn plant response rating [10]: 50
Plant response rating, Corn [10]: 80
Plant response rating, Pigweed, Palmer [11, 29]: 50
Plant response rating, Pigweed, Palmer [11, 30]: 90
Plant response rating, Kochia [12, 29]: 0
Plant response rating, Kochia [12, 30]: 20
Plant response rating, Corn [13, 29]: 0
Plant response rating, Corn [13, 30]: 0
Plant response rating, Sedge, Umbrella [14]: 0
Kochia plant response rating [15]: 40
Plant response rating, Kochia [15]: 80
Plant response rating, Wheat [16, 29]: 20
Plant response rating, Wheat [16, 30]: 50
Plant response rating, Foxtail, Giant [17, 29]: 80
Plant response rating, Foxtail, Giant [17, 30]: 100
Blackgrass plant response rating [18]: 50
Plant response rating, Blackgrass [18]: 90
Soybean plant response rating [19]: 60
Plant response rating, Soybean [19]: 100
Plant response rating, Blackgrass [20, 29]: 30
Plant response rating, Blackgrass [20, 30]: 70
Plant response rating, Ryegrass, Italian [21, 29]: 50
Plant response rating, Ryegrass, Italian [21, 30]: 90
Plant response rating, Soybean [22, 29]: 0
Plant response rating, Soybean [22, 30]: 0
Plant response rating, Barnyardgrass ([23]; 125 g ai/ha): 30
Plant response rating, Barnyardgrass ([23]; 500 g ai/ha): 90
Galium plant response rating [24]: 60
Plant response rating, Galium [24]: 70
Barnyardgrass plant response rating [25]: 10
Plant response rating, Barnyardgrass [25]: 70
Pigweed, Palmer plant response rating [26]: 40
Plant response rating, Pigweed, Palmer [26]: 100
Ryegrass, Italian plant response rating [27]: 50
Plant response rating, Ryegrass, Italian [27]: 70
Plant response rating, Barnyardgrass [28]: 0

COc1cc(C(=O)N2C[C@H](C)Oc3c(Cl)cccc32)cc(-n2cncn2)c1 [Compound 138]
Foxtail, Giant plant response rating [1]: 90
Plant response rating, Foxtail, Giant [1]: 90
Wheat plant response rating [2]: 40
Plant response rating, Wheat [2]: 80
Plant response rating, Oat, Wild ([3]; 125 g ai/ha): 40
Plant response rating, Oat, Wild [3, 30]: 90
Plant response rating, Ragweed ([4]; 125 g ai/ha): 0
Plant response rating, Ragweed [4, 30]: 0
Oat, Wild plant response rating [5]: 50
Plant response rating, Oat, Wild [5]: 80
Plant response rating, Rice [6]: 35
Horseweed plant response rating [7]: 0
Plant response rating, Horseweed [7]: 0
Ragweed plant response rating [8]: 0
Plant response rating, Ragweed [8]: 40
Plant response rating, Ducksalad [9]: 70
Corn plant response rating [10]: 80
Plant response rating, Corn [10]: 90
Plant response rating, Pigweed, Palmer ([11]; 125 g ai/ha): 90
Plant response rating, Pigweed, Palmer [11, 30]: 100
Plant response rating, Kochia ([12]; 125 g ai/ha): 0
Plant response rating, Kochia [12, 30]: 50
Plant response rating, Corn ([13]; 125 g ai/ha): 10
Plant response rating, Corn [13, 30]: 10
Plant response rating, Sedge, Umbrella [14]: 75
Kochia plant response rating [15]: 80
Plant response rating, Kochia [15]: 80
Plant response rating, Wheat ([16]; 125 g ai/ha): 40
Plant response rating, Wheat [16, 30]: 90
Plant response rating, Foxtail, Giant ([17]; 125 g ai/ha): 100
Plant response rating, Foxtail, Giant [17, 30]: 100
Blackgrass plant response rating [18]: 80
Plant response rating, Blackgrass [18]: 90
Soybean plant response rating [19]: 100
Plant response rating, Soybean [19]: 100
Plant response rating, Blackgrass ([20]; 125 g ai/ha): 80
Plant response rating, Blackgrass [20, 30]: 90
Plant response rating, Ryegrass, Italian ([21]; 125 g ai/ha): 80
Plant response rating, Ryegrass, Italian [21, 30]: 100
Plant response rating, Soybean ([22]; 125 g ai/ha): 70
Plant response rating, Soybean [22, 30]: 100
Plant response rating, Barnyardgrass ([23]; 125 g ai/ha): 90
Plant response rating, Barnyardgrass ([23]; 500 g ai/ha): 100
Galium plant response rating [24]: 80
Plant response rating, Galium [24]: 100
Barnyardgrass plant response rating [25]: 60
Plant response rating, Barnyardgrass [25]: 80
Pigweed, Palmer plant response rating [26]: 30
Plant response rating, Pigweed, Palmer [26]: 90
Ryegrass, Italian plant response rating [27]: 70
Plant response rating, Ryegrass, Italian [27]: 100
Plant response rating, Barnyardgrass [28]: 35
